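Cells were grown in 96-well plates and exposed to each compound for 48 hours at five concentrations; endpoints were interpolated linearly between bracketing concentrations, or set to the highest concentration if not reached. GI50 is the concentration that inhibits growth by half. The concentration for full growth arrest is given as TGI.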
Assays:
Assay in all cases: growth of human tumour cells (NCI), 48 h
HCC-2998 colon = system: HCC-2998 colon
HCT-116 colon = system: HCT-116 colon
KM12 colon = system: KM12 colon
M14 melanoma = system: M14 melanoma
MCF7 breast = system: MCF7 breast
MDA-MB-231 breast = system: MDA-MB-231 breast
SF-539 CNS = system: SF-539 CNS
SK-MEL-2 melanoma = system: SK-MEL-2 melanoma
SNB-19 CNS = system: SNB-19 CNS
SNB-75 CNS = system: SNB-75 CNS

Compound	GI50 (HCC-2998 colon)	TGI (HCC-2998 colon)	GI50 (HCT-116 colon)	TGI (HCT-116 colon)	GI50 (KM12 colon)	TGI (KM12 colon)	GI50 (M14 melanoma)	TGI (M14 melanoma)	GI50 (MCF7 breast)	TGI (MCF7 breast)	GI50 (MDA-MB-231 breast)	TGI (MDA-MB-231 breast)	GI50 (SF-539 CNS)	TGI (SF-539 CNS)	GI50 (SK-MEL-2 melanoma)	TGI (SK-MEL-2 melanoma)	GI50 (SNB-19 CNS)	TGI (SNB-19 CNS)	GI50 (SNB-75 CNS)	TGI (SNB-75 CNS)
O=C1c2nsnc2C(=O)c2c(F)c(F)c(F)c(F)c21	1.56 µM	3.14 µM	0.426 µM	1.36 µM	1.4 µM	3.29 µM	0.249 µM	0.629 µM	0.398 µM	2.19 µM	1.38 µM	2.78 µM	1.7 µM	3.14 µM	2.17 µM	4.81 µM	1.2 µM	2.56 µM	1.02 µM	2.21 µM
CNC(=O)OCc1c2ccncc2c(C)c2c1[nH]c1ccccc12		1.08 µM		12.7 µM		5.19 µM		2.95 µM		1.24 µM		2.87 µM		0.784 µM		0.548 µM		7.98 µM		1.17 µM
O=C1c2ccccc2C(=O)N1CCN(CCN1C(=O)c2ccccc2C1=O)Cn1cccn1		> 100 µM		31.6 µM		> 100 µM		> 100 µM								> 100 µM		> 100 µM		> 100 µM
COC1CCN(C(=O)c2cc(Cc3n[nH]c(=O)c4ccccc34)ccc2F)CC1	> 100 µM	> 100 µM	> 100 µM	> 100 µM	> 100 µM	> 100 µM	> 90.9 µM	> 100 µM	60.8 µM	> 100 µM	> 100 µM	> 100 µM	> 100 µM	> 100 µM	> 47.1 µM	> 100 µM	57.6 µM	> 100 µM	9.12 µM	> 100 µM
O=C1CCC2CC(C(=O)c3ccccc3)CCC2CN1 (stereo not given) (tested in a mixture with another compound)		> 100 µM		> 100 µM		> 100 µM		> 100 µM						> 100 µM		> 100 µM		> 100 µM		> 100 µM
COC(=O)C(CC(C)C)NC(=O)NC12CC3CC(CC(F)(C3)C1)C2 (stereo not given)		> 100 µM		> 100 µM		> 100 µM		> 100 µM						> 100 µM		> 100 µM		> 100 µM		> 100 µM
COC(=O)C(C(=O)C(=O)Nc1nc(=S)[nH][nH]1)c1csc(-n2nc(-c3ccccc3)cc2-c2ccccc2)n1 (stereo not given)		> 100 µM		> 100 µM		> 100 µM		> 100 µM										> 100 µM		78.5 µM
O=C(O)C[C@H]1CCCCC12CCOC2=O (stereo not given in full)		> 100 µM		> 100 µM		> 100 µM		> 100 µM						> 100 µM		> 100 µM		> 100 µM		> 100 µM
COC(=O)/C=C(\C(=O)OC)c1c2c3c(cc(OC)c(OC)c3c3ccccc13)CCN2C		> 100 µM		> 100 µM		> 100 µM		> 100 µM						75.4 µM		> 100 µM		> 100 µM		> 100 µM
CC1=NOC(=O)/C1=C/c1cccc2ccccc12		> 100 µM		> 100 µM		> 100 µM		> 100 µM						> 100 µM		> 100 µM		> 100 µM		> 100 µM
N/N=C(\C(=O)Nc1ccc(Cl)cc1Cl)C(c1cnc2ccccc2n1)[N+](=O)[O-] (stereo not given)		> 100 µM		> 100 µM		> 100 µM		> 100 µM		> 100 µM		> 100 µM		> 100 µM		> 100 µM				> 100 µM
NS(=O)(=O)c1ccc(NC2=CC(=O)C(=O)c3ccccc32)cc1		> 100 µM		> 100 µM		> 100 µM		> 100 µM						> 100 µM		> 100 µM		> 100 µM		> 100 µM
Oc1ccc(O)c(-c2cn3ccsc3n2)c1	16.5 µM	31.1 µM	5.68 µM	18.3 µM	12.5 µM	27.7 µM	15.2 µM	28.5 µM	5.5 µM	27.2 µM	11.7 µM	33.7 µM			50.4 µM	> 100 µM	20.9 µM	49.7 µM		
Cc1ccc(NC(=O)C(=O)C(C#N)c2nc(-c3ccc(-c4ccccc4)cc3)cs2)c(C)c1 (stereo not given)		> 100 µM		> 100 µM				> 100 µM						> 100 µM		> 100 µM		> 100 µM		> 100 µM
CCCCCCCCCCCCCC(=O)OCC1OC(n2cc(F)c(=O)[nH]c2=O)C(NC(=O)OCc2ccccc2)C(OC(=O)CCCCCCCCCCCCC)C1O (stereo not given)		> 100 µM		> 100 µM		> 100 µM		> 100 µM						> 100 µM		> 100 µM		> 100 µM		> 100 µM
O=C(c1ccccc1)[C@H]1Nc2ccc(Cl)cc2C2c3ccccc3CC21 (stereo not given in full)		83.4 µM		> 100 µM		> 100 µM		> 100 µM						> 100 µM		> 100 µM		> 100 µM		> 100 µM
Cc1cc2c(cc1C)[n+](=O)c(C(=O)C/C(=N/OCCCc1ccccc1)C(=O)Nc1cc(Cl)ccc1Cl)c(C)n2[O-]		> 100 µM		> 100 µM		> 100 µM		> 100 µM						> 100 µM		86.2 µM		> 100 µM		> 100 µM
COc1c(C(=O)c2ccc([N+](=O)[O-])cc2)cc(C(C)(C)C)cc1C(C)(C)C		66.9 µM		62.9 µM		> 100 µM		> 100 µM						> 100 µM		30.1 µM		> 100 µM		> 100 µM
COC(=O)/C(=N\Nc1nc(=S)[nH]n1N)C(C#N)c1ccccc1 (stereo not given)		> 100 µM		> 100 µM		> 100 µM		> 100 µM								> 100 µM		> 100 µM		> 100 µM
Clc1ccc2c(c1)N(CCCN1CCCC1)c1ccccc1S2	4.41 µM	15.5 µM	3.19 µM	12.1 µM	5.14 µM	18.7 µM	1.92 µM	3.97 µM	3.22 µM	13.6 µM	3.42 µM	12.8 µM			10.8 µM	23.9 µM	9.63 µM	28.1 µM	3.4 µM	16.4 µM

Reference: PubChem BioAssay (NCI)
